Each block holds one molecule with its values, some of them ahead of it. Where a SMILES comes first, the peptide text is derived from it. Bridges are numbered along the chain shown (N, C = ends). [ ]: non-standard residue; d: D form. The star is where a group is joined. 2Nal = N[C@@H](Cc1ccc2ccccc2c1)C(=O)O; Lys(iPr) = CC(C)NCCCC[C@H](N)C(=O)O; Benzoyl(4-F) = O=C(c1ccc(F)cc1)*; Cit = NC(=O)NCCC[C@H](N)C(=O)O
Legend:
CXCR4-ADRB2 heteromer [1] = molecular target: T1, CXCR4-ADRB2 heteromer (Homo sapiens, UniProt P07550+P61073); assay: Calcium mobilization assay, HL-60 cells endogenously expressing CXCR4 and ADRB2; type: cell-based; conditions: for decrease of IC50 of Ca2+ response upon co-treatment of carvedilol, HL-60: Carvedilol 10 μM
A549-CXCR4-ADRB2 cells [2] = assay: Proliferation assay (Prestoblue), A549-CXCR4-ADRB2 cells; conditions: serum free, 72 hr; for block of CXCL12 effect on cell proliferation: FIGS. 18A-18E, 10 μM (AMD070 1 μM)
[3] = test system: MDA-MB-231-CXCR4-ADRB2 cells; assay: MDA-MB-231-CXCR4-ADRB2 orthotopic xenograft, tumor growth; type: in vivo, mouse; conditions: FIG. 22C; for suppression of tumor growth, single administration: once a day for 4 weeks
CXCR4-ADRB2 heteromer [4] = molecular target: T1, CXCR4-ADRB2 heteromer; assay: Calcium mobilization assay, U937 cells endogenously expressing CXCR4 and ADRB2; type: cell-based
CXCR4-ADRB2 heteromer [5] = molecular target: T1, CXCR4-ADRB2 heteromer; assay: Calcium mobilization assay, MDA-MB-231 cells co-transduced with CXCR4 and ADRB2; type: cell-based; conditions: for decrease of IC50 of Ca2+ response upon co-administration of Carvedilol / IC50: Table 4; for decrease of IC50 of Ca2+ response upon co-administration of Carvedilol: Carvedilol 600 nM; for IC50: IC50 of Ca2+ response
Method: The next day, the cells were co-transduced with 10 MOI of CXCR4 and 30 MOI of GPCRx. […] Calcium mobilizations were measured using FlexStation 3 Multi-Mode Microplate Reader. The results were normalized for base-line activity. Calcium mobilizations were quantified by calculating the area-under-the-curve (AUC) of each graph.
MDA-MB-231 cells were transduced with adenoviruses encoding CXCR4 only, or CXCR4 and ADRB2.
Calcium mobilization was measured using FlexStation3, and the resulting IC50 values of calcium response were calculated using GraphPad Prism software.
The next day, cells were co-transduced with 10 MOI of CXCR4 and 30 MOI of GPCRx. Adenoviruses encoding HA-VC were used to adjust the total amount of adenoviruses transduced. After 2 days, cells were treated with antagonist with indicated amounts and incubated with Cal 6 (FLIPR® Calcium 6 Assay Kit by Molecular Devices, Cat. R8191) for 2 hr. […] Calcium mobilization was measured using FlexStation 3 Multi-Mode Microplate Reader (Molecular Devices, Sunnyvale, Calif., USA). The results were normalized for base-line activity. […] Data represent three independent experiments (mean±SEM).

CXCR4 = molecular target: T2, CXCR4 (Homo sapiens, UniProt P61073); assay: Calcium mobilization assay, MDA-MB-231 cells transduced with CXCR4 only; type: cell-based
T2 construct: expressed in transfected cells; host or cells: MDA-MB-231 (adenoviral transduction)

[6] = test system: patient derived cells (PDCs) from glioblastoma; assay: Survival of patient derived cells (ATPlite); type: cell-based, human; conditions: PDC expressing CXCR4 and ADRB2; 7 days
Method: Single cell suspensions of resected and dissociated glioblastoma tissues from patients were prepared (provided by Samsung Seoul hospital in Seoul, Korea). These cells were cultured under conditions optimal for propagation and non-differentiation of normal neuronal stem cell. Media were composed serum free Neurobasal media supplemented with basic FGF and EGF.
The effects of GPCRx antagonist on the survival of patient derived cells (PDCs) were assessed using ATPlite (PerkinElmer, Cat. No. 6016739 reagent). ATPlite is an Adenosine Triphospate monitoring system based on firefly luciferase. This luminescence assay is the alternative to colorimetric, fluorometric and radioisotopic assays for the quantitative evaluation of proliferation and cytotoxicity of cultured mammalian cells. Cells were seeded in 384-well plate at 500 cells/well in 40 μL culture media. After overnight growth, the cells were cultured for 7 days in the presence of several dose of GPCRx antagonist or DMSO alone. After a 7-day incubation, 15 μL ATPlite was added into the each well and the plate were shaken for 5 minutes in an orbital shaker at 700 rpm. The luminescent signal was detected within 30 minutes at PerkinElmer TopCount detection instrument. The cell viability was calculated using the equation: Cell viability (%)=(OD of antagonist treatment/OD of DMSO only treatment)×100%.

A549-CXCR4-ADRB2 cells [7] = assay: A549-CXCR4-ADRB2 xenograft, tumor growth; type: in vivo, mouse; conditions: 10 mpk; in only 2 doses
Method: The antitumor effect in mice transplanted with A549 cells containing CXCR4-ADRB2 by stably overexpressing both CXCR4 and ADRB2 (“A549-CXCR4-ADRB2 cells”) was evaluated using CXCR4 inhibitors currently under development or on the market. A549-CXCR4-ADRB2 cells (1×10^7 cell/head) were injected subcutaneously in nude mice. […]. The CXCR4 inhibitors were administered once a day for 4 weeks.
Five week-old, female Balb/c-nu/nu mice were obtained from Envigo (France) and maintained in specific pathogen-free animal facility. All protocols for animal use and euthanasia were approved by the Qubest Bio (South Korea) Animal Experimental Ethics Committee based on the Animal Protection Act. […] The tumor growth was monitored every third or fourth day by measuring the length (L) and width (W) of the tumor with an electronic caliper and calculating tumor volume in the basis of the following formula: Volume=0.5 LW^2.
For the antitumor efficacy test using CXCR4 inhibitors, A549-CXCR4-ADRB2 cell line overexpressing CXCR4 and ADRB2 in A549, lung cancer cell line was subcutaneously administered (1×10^7 cell in 100 μL PBS/head) to BALB/c-nu. […] The tumor growth was monitored every third or fourth day by measuring the length (L) and width (W) of the tumor: Volume=0.5 LW^2.

ERK1/2 [8] = assay: Western blot of phospho-ERK1/2, MDA-MB-231 cell lines; type: cell-based, human; conditions: for ERK1/2 activation, single agonist: MDA-MB-231 parent, MDA-MB-231-CXCR4 and MDA-MB-231-CXCR4-ADRB2 cells, data not shown
Method: MDA-MB-231 cells and A549 cells, expressing Rluc-luc2P or CXCR4, or containing CXCR4-ADRB2 heteromer, were seeded in 6 well plates at a density of 5×10^5 cells per well. […] Thereafter, each of the sets of cells were harvested and performed western blotting analysis.
Cells were seeded in 6 well plates at a density of 5×10^5 cells per well. […] Thereafter, the cells were harvested using NP-40 lysis buffer (Thermo Fisher Scientific, #FNN0021) supplemented with phosphatase inhibitor cocktail (Roche, #4906845001) and protease inhibitor cocktail (Thermo Fisher Scientific, #A32953). Proteins of cell lysates concentrations were determined by the Bio-Rad protein assay (Bio-Rad, #5000006). 20 μg of protein samples were subjected to reducing SDS-PAGE and transferred to PVDF (Polyvinylidene difluoride) using dry transfer system (Thermo Fisher Scientific, #IB21001). The membranes were blocked with 5% skim milk (BD Difco, #232100) in Tris-Buffered Saline with 1% Tween-twenty for 1 hour and incubated with phospho-ERK1/2 Thr202/Tyr204 (Cell Signaling Technology, #4370) and total-ERK1/2 (Cell Signaling Technology, #4695) antibodies. Antigen-antibody complexes were detected by incubating with horseradish peroxidase coupled secondary antibodies (Cell Signaling Technology) followed by SuperSignal West Femto Maximum Sensitivity Substrate (Thermo Fisher Scientific, #34096). Western blot images were captured and analyzed by iBright Western Blot Imaging System (Thermo Fisher Scientific, #A32752).

ERK1/2 [9] = assay: Western blot of phospho-ERK1/2, A549 cell lines; type: cell-based, human; conditions: A549-CXCR4-ADRB2 cells; 10 nM each; 10 minutes
ADRB2 = molecular target: T3, ADRB2 (Homo sapiens, UniProt P07550); assay: Calcium mobilization assay, MDA-MB-231 cells transduced with ADRB2 only; type: cell-based; conditions: FIG. 5B; CXCL12 15 nM, salmeterol 100 nM
T3 construct: expressed in transfected cells; host or cells: MDA-MB-231 (adenoviral transduction)

CXCR4-ADRB2 heteromer [10] = molecular target: T1, CXCR4-ADRB2 heteromer; assay: Internalization inhibition assay, CXCR4-GFP U-2 OS cells transduced with ADRB2; conditions: FIG. 8; CXCL12 20 nM or antagonist 10 μM; 20 minutes

T2 sequence (P61073 whole entry): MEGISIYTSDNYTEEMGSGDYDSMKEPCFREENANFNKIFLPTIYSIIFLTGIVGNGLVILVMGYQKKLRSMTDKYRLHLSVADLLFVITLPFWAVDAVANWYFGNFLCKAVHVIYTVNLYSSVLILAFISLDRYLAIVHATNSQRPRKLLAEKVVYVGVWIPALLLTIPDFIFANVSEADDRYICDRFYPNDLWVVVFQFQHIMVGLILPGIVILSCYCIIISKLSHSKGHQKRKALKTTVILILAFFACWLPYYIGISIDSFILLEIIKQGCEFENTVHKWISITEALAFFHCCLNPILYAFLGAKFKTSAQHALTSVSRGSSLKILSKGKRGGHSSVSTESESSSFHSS

Molecule: NCCCCN(Cc1nc2ccccc2[nH]1)[C@H]1CCCc2cccnc21 [AMD070]
decrease of IC50 of Ca2+ response upon co-treatment of carvedilol, HL-60 (CXCR4-ADRB2 heteromer [1]): about 12.7 fold
block of CXCL12 effect on cell proliferation (A549-CXCR4-ADRB2 cells [2]): blocked the CXCL12 effect
inhibition of tumor growth, co-administration with Carvedilol ([3]; AMD070 3 or 10 mg/kg with Carvedilol 30 mg/kg): effectively inhibited the growth of the tumor
suppression of tumor growth, single administration [3]: limited suppression of tumor growth

Molecule: COc1ccccc1OCCNCC(O)COc1cccc2[nH]c3ccccc3c12 (centres unmarked) [Carvedilol]
IC50 [6]: 11700 nM
suppression of tumor growth, single administration [3]: limited suppression of tumor growth

Molecule: CC(C)NCCCC[C@H](NC(=O)[C@H]1CCC(=O)N[C@@H](Cc2ccccc2)C(=O)N[C@@H](Cc2ccc(O)cc2)C(=O)N[C@@H](CCCCNC(C)C)C(=O)N[C@H](CCCNC(=N)N)C(=O)N[C@@H](Cc2ccc3ccccc3c2)C(=O)NCC(=O)N1)C(N)=O [LY2510924] (FY[Lys(iPr)][dR][2Nal]G[dE][Lys(iPr)]-NH2; lactam N-7)
death of mice (A549-CXCR4-ADRB2 cells [7]): 3 out of 10
block of CXCL12 effect on cell proliferation (A549-CXCR4-ADRB2 cells [2]): blocked the CXCL12 effect

Molecule: OCc1cc(C(O)CNCCCCCCOCCCCc2ccccc2)ccc1O (centres unmarked) [salmeterol, Salmeterol]
ERK1/2 activation, co-stimulation with CXCL12 and salmeterol (ERK1/2 [8]; MDA-MB-231-CXCR4-ADRB2 cells, 10 nM each, 20 minutes): synergistically increased
ERK1/2 activation, single agonist (ERK1/2 [8]): induced ERK activation after 20 minutes
ERK1/2 phosphorylation, co-stimulation with CXCL12 and salmeterol (ERK1/2 [9]): significantly activated

Continued, in another order:

decrease of IC50 of Ca2+ response upon co-treatment of carvedilol, HL-60 (CXCR4-ADRB2 heteromer [1]): about 4.4 fold
decrease of IC50 of Ca2+ response upon co-treatment of carvedilol, U937 (CXCR4-ADRB2 heteromer [4]; Carvedilol 10 μM): about 6.4 fold
decrease of IC50 of Ca2+ response upon co-administration of Carvedilol (CXCR4-ADRB2 heteromer [5]): about 10.5 fold
Molecule: c1cc(CN2CCCNCCNCCCNCC2)ccc1CN1CCCNCCNCCCNCC1 [AMD3100, plerixafor]
block of CXCL12 effect on cell proliferation (A549-CXCR4-ADRB2 cells [2]): blocked the CXCL12 effect
suppression of enhanced calcium signaling, co-administration with carvedilol (CXCR4-ADRB2 heteromer [5]; FIG. 6, AMD3100 10 μM with carvedilol 10 μM): greater suppression of the calcium signaling

IC50 (CXCR4-ADRB2 heteromer [5]; CXCR4 + ADRB2 (+Carvedilol 600 nM), co-treated with Carvedilol 600 nM (its IC90)): 1.94 nM
IC50 (CXCR4-ADRB2 heteromer [5]; CXCR4 + ADRB2 (−Carvedilol 600 nM), CXCR4 inhibitor only): 88.7 nM
decrease of IC50 of Ca2+ response upon co-administration of Carvedilol (CXCR4-ADRB2 heteromer [5]): about 45.7 fold
IC50 (CXCR4; Table 4, cells expressing CXCR4 alone, CXCR4 inhibitor only, read-out: IC50 of Ca2+ response, CXCR4): 579 ± 204 nM
Molecule: N=C(N)NCCC[C@H](NC(=O)[C@@H]1CSSC[C@H](NC(=O)[C@H](Cc2ccc3ccccc3c2)NC(=O)[C@H](CCCNC(=N)N)NC(=O)[C@H](CCCNC(=N)N)NC(=O)c2ccc(F)cc2)C(=O)N[C@@H](Cc2ccc(O)cc2)C(=O)N[C@@H](CCCNC(N)=O)C(=O)N[C@@H](CCCCN)C(=O)N[C@H](CCCCN)C(=O)N2CCC[C@H]2C(=O)N[C@@H](Cc2ccc(O)cc2)C(=O)N[C@@H](CCCNC(=N)N)C(=O)N[C@@H](CCCNC(N)=O)C(=O)N1)C(N)=O [BKT140] ({Benzoyl(4-F)}-RR[2Nal]CY[Cit]K[dK]PYR[Cit]CR-NH2; disulfide 4-13)
block of CXCL12 effect on cell proliferation (A549-CXCR4-ADRB2 cells [2]): blocked the CXCL12 effect

calcium response, single agonist, cells overexpressing ADRB2 alone (ADRB2): did not induced calcium response
EC50 (CXCR4; read-out: EC50 concentration against CXCR4): ~15 nM
Molecule: CXCL12: C-X-C Motif Chemokine ligand 12, CXCR4 agonist
ERK1/2 activation, single agonist (ERK1/2 [8]): induced activation of ERK1/2 after 10 minutes
internalization of CXCR4-GFP with ADRB2, substance alone (CXCR4-ADRB2 heteromer [10]): induced internalization of CXCR4-GFP with ADRB2
calcium response, single agonist, HL-60 (CXCR4-ADRB2 heteromer [1]; FIG. 26B, CXCL12 200 nM, formoterol 10 μM): evoked an intercellular calcium mobilization
calcium response, single agonist, U937 (CXCR4-ADRB2 heteromer [4]; FIG. 26A, CXCL12 200 nM, formoterol 10 μM): evoked an intercellular calcium mobilization
increase of cell proliferation rate (A549-CXCR4-ADRB2 cells [2]; CXCL12 100 nM): about 20%
calcium response, single agonist, cells expressing CXCR4 (CXCR4; FIG. 5A, CXCL12 15 nM, salmeterol 100 nM): evoked intracellular calcium mobilization

— patent US20220273751A1, “GPCR HETEROMER INHIBITORS AND USES THEREOF” (GPCR THERAPEUTICS, INC., priority 2019, published 2022)
